The text below walks through data of patent US10350210B2, “EGFR and ALK dual inhibitor” (PRECEDO PHARMACEUTICALS CO., LTD, priority 2015, dated 2019).

Some results are limits rather than exact numbers.

For data set [1], the system named is EGFR protein (EGFR delE746_A750, PC-9). In words: Effect on signaling pathway in cells, PC-9. It counts as cell-based, human. Conditions: PC-9 (EGFR delE746_A750), 4 h. The source says:
In four cell lines (all purchased from ATCC) including non-small cell lung cancer cell line A549 (expressing wild-type EGFR gene), non-small cell lung cancer cell line H1975 (expressing EGFR L858R/T790M double mutant gene), non-small cell lung cancer cell line H3255 (expressing EGFR L858R mutant gene) and non-small cell lung cancer cell line PC-9 (expressing EGFR delE746_A750 mutant gene), the effect of Compound 1 on EGFR or other protein kinases related to signaling pathways of EGFR such as Stat3, AKT, ErK, eIF4E, 4EBP1, P70S6K was assessed by assaying a number of cellular biochemical and functional endpoints. […] The effect of Compound 1 on phosphorylation of Stat3Y705, AKT T308, AKT 5473, Erk T202/204, EGFR Y1068, P70S6K Thr389, eIF4E Ser209, Erk T202/204, 4EBP1 (Thr37/46) in these cell lines was assayed (FIGS. 1a to 1d).

Data set [2] relates to non-small cell lung cancer cell H1975 subcutaneous tumors. In words: Mouse tumor model of non-small cell lung cancer cell H1975. The conditions noted are these: for tumor inhibition rate: Bal b/c mice. It counts as in vivo. How it is done: Similarly, 27 Bal b/c female mice, 4-6 weeks old, were purchased from Shanghai SLAC Laboratory Animal Co., Ltd., and maintained in an SPF laboratory. Drinking water and bedding were both sterilized by autoclaving. All operations involving the mice were performed under aseptic conditions. At day 0, 5×10^6 non-small cell lung cancer cells H1975 (purchased from ATCC) were injected subcutaneously into the left flank of all mice. At day 15, all mice were divided into three groups (9 mice per group), and the first group of mice were orally administered with methyl cellulose (HKI) solvent, the second group of mice were orally administered with Compound 1 at a dose of 25 mg/kg mouse weight, and the third group of mice were orally administered with Compound 1 at a dose of 50 mg/kg mouse weight daily. Starting from the administration, the length/width of the subcutaneous tumor was measured daily with a vernier caliper, and the weight of the mice was recorded daily to observe the effect of Compound 1 on the body weight of the mice. The mice were sacrificed at day 36 and the subcutaneous tumors were collected. The tumors were weighed, and then the tumor tissues were used to prepare protein lysates for use. The growth trend of the subcutaneous tumor within 16-36 days was plotted, wherein the tumor volume was calculated as length×width×width/2 mm^3.

The subject of another data set is BaF3-TEL-EGFR-L858R. Kind of data set: Cell growth (Cell Titer-Glo viability), BaF3-TEL-EGFR-L858R. It counts as cell-based. Conditions: Mus musculus; BaF3-TEL-EGFR-L858R (EGFR L858R mutant kinase), 72 hrs. How it is done: (§1) By testing the effect of the novel kinase inhibitors on the proliferation of cancer cells, the selectivity of the compounds of the present disclosure in inhibiting the proliferation of cancer cells was further assessed. […]
(§2) The number of viable cells was determined quantitatively by a microplate reader using Cell Titer-Glo® (Promega, US) chemiluminescence cell viability assay kit.
In general terms: Cellular ATP, detected with luciferase, serves as a proxy for viable cell number.

The subject of a further data set is BaF3-FL-EGFR-T790M-L858R. In words: Cell growth (Cell Titer-Glo viability), BaF3-FL-EGFR-T790M-L858R. It counts as cell-based. The conditions noted are these: Mus musculus; BaF3-FL-EGFR-T790M-L858R (EGFR T790M/L858R mutant kinase), 72 hrs. How it is done:
as §1, §2

As to `C=CC(=O)Nc1cc(Nc2ncc(Cl)c(Nc3ccccc3S(=O)(=O)C(C)C)n2)c(OC)cc1N1CCN(CC)CC1` [Compound 1, N-(5-(5-chloro-4-(2-(isopropylsulfonyl)phenylamino)pyrimidin-2-ylamino)-2-(4-ethylpiperazin-1-yl)-4-methoxyphenyl)acrylamide], the “concentration able to significantly inhibit the phosphorylation of EGFR protein (also affects AKT and ERK phosphorylation)” value in data set [1] amounted to 0.3 µM. Besides, the tumor inhibition rate is listed as 70% in data set [2] (oral daily 25 mg/kg, on the second day of administration) and 81.7% in data set [2] (oral daily 50 mg/kg, after 8 days of administration). In addition, the “body weight of the mice” value in data set [2] (oral daily 25 mg/kg) and in data set [2] (oral daily 50 mg/kg) was “did not decrease” in each case. Besides, in the data set with BaF3-TEL-EGFR-L858R, the 50% growth inhibitory concentration (GI50) (as a rule, the concentration giving 50% growth inhibition) is under 3 nM.
Consider `C=CC(=O)Nc1cc(Nc2ncc(Cl)c(Nc3ccccc3S(=O)(=O)C(C)C)n2)c(OC)cc1N1CCCN(C)CC1` [Compound 10, N-(5-(5-chloro-4-(2-(isopropylsulfonyl)phenylamino)pyrimidin-2-ylamino)-4-methoxy-2-(4-methyl-1,4-homopiperazin-1-yl)phenyl)acrylamide], for which, in the data set on BaF3-FL-EGFR-T790M-L858R, the GI50 worked out at 2 nM.
